Data taken from US5935840A, “Activated recombinant adenovirus proteinases” (priority 1995, dated 1999).
Entries after “also recorded” stand apart in the source; their conditions may differ. No end group written: not given here.

Key:
HEP1DBP = assay: Cleavage of artificial protein substrate HEP1DBP (SDS-polyacrylamide gel electrophoresis); type: biochemical
Description: Recombinant protein substrates that resemble natural virion precursors, such as pVI, can be produced in E. coli by genetic engineering methods similar to those used for expression of recombinant adenovirus proteinase. The recombinant substrate may have an artificial leader sequence that can be removed by proteinase-mediated cleavage. The leader can be designed to aid in purification of the substrate; thus the recombinant substrate can be produced and purified much more efficiently than natural adenovirus substrates. Recombinant protein substrates also serve as prototypes of potential commercial products, showing that the adenovirus proteinase will remove an artificial leader sequence from a recombinant protein that is not related to any adenovirus protein. The first artificial protein substrate was called HEP1DBP. It consists of a 17 amino acid leader (Met-Ala-Ser-Met-Thr-Gly-His-His-His-His-His-His-Gly-Met-Ser-Gly-Gly-) (SEQ ID NO: 37) attached to the initiating methionine of the 232 amino acid DNA binding protein (DBP), of bacteriophage T7. The T7 DBP is the product of gene 2.5. The recombinant proteinase substrate is produced by induction of a pET expression plasmid called pT7HEP1DBP (also called pT7HIS2) (FIG. 7A and Example 11); the predicted sequence of the expressed substrate is given in Table 1. The leader sequence contains six consecutive histidine residues to permit purification by metal affinity chromatography in a manner analogous to purification of the adenovirus proteinase. Immediately preceding the methionine corresponding to the initiation site of the T7 DBP is the tetra-amino acid element -Met-Ser-Gly-Gly- (SEQ ID NO: 38). This segment corresponds to the proteinase recognition sequence in the adenovirus virion precursor polypeptide pVI. The size of the leader sequence was chosen so that the substrate precursor HEP1DBP, and the predicted major product after cleavage, the T7 DBP, could easily be distinguished by SDS-polyacrylamide gel electrophoresis.
When purified HEP1DBP was incubated with disrupted wild-type adenovirus 2 virions, it was cleaved, as determined from the change in its mobility during SDS-polyacrylamide gel electrophoresis. No cleavage was observed when incubation was with disrupted H2ts1 virions alone.
Plasmid pT7HEP1DBP (5346 bp) is a pET-3 derivative that expresses the […] T7 gene 2.5 protein (a single-stranded DNA binding protein) attached to a 17-amino acid leader sequence (FIG. 19). The 249-amino acid HEP1DBP polypeptide serves as an artificial substrate for the adenovirus EP; the leader peptide, MASMTGHHHHHHGMSGG- (SEQ ID NO: 37), ends with the Ad2 proteinase recognition sequence -MSGG- (SEQ ID NO: 38) [Anderson, C. […]

[1] = system: Ad2 major core protein precursor, pVII; assay: Assay of adenovirus proteinase activity in crude extracts: cleavage of [35S]-methionine-labeled pVII (SDS-PAGE, autoradiography); type: biochemical, adenovirus type 2; settings: for Proteinase activity (cleavage of pVII): log phase cells
Description: The expression products of the above-described Ad2 and Ad12 proteinase plasmids were tested for their ability to cleave the Ad2 major core protein precursor, pVII, in crude extracts from adenovirus-infected cells. The extracts were obtained from human cells infected with the temperature-sensitive mutant Ad2 strain, H2ts1, which has a defective proteinase. As described below, adenovirus proteinase activity requires the presence of two cofactors. […] The recombinant proteinases were also characterized by peptide sequence analysis of their amino-termini.
Bacterial extracts were incubated with the radiolabeled substrate (pVII). Samples were removed at different times and analyzed by SDS-PAGE and autoradiography. […] Appearance of the processed VII band and concurrent decrease of the precursor pVII band indicates proteinase activity. Radiolabeled proteins of Ad2 virions were run on the gel to indicate the positions of pVII, VII, and other virion components (lane a). Extracts from Ad2 -infected HeLa cells were assayed as a positive control for proteinase activity (lane b).
Adenovirus proteinase activity was monitored by the cleavage of [^35 S]-methionine-labeled major core precursor (pVII) essentially as described (Bhatti and Weber, Biochem. Biophys. Res. Comm. 81: 973-797, (1978)). The proteinase substrate was prepared from Ad2Ad2tsl-infected HeLa cells grown at 39° C. and labeled with [^35 S]-methionine (200 μCi/plate) from approximately 28 to 30 hours after infection. Labeled cultures were harvested, washed twice in Phosphate Buffered Saline (PBS), resuspended in 1.0 ml of 10 mM sodium phosphate buffer, pH 7.4, per plate, and sonicated for 40 seconds using a water-cooled sonicator horn (Branson Sonic Power Co., Danbury, Conn.). The extract was then centrifuged at 12,000×g for 10 minutes, and the pellet was resuspended in 10 mM phosphate buffer.
Extracts of Ad-infected cells, harvested 40 hours after infection at 37° C. were used as a source of viral proteinase. Harvested cultures were washed twice with PBS, resuspended in 10 mM phosphate buffer, frozen and thawed once, and centrifuged at 12,000×g for 10 minutes. Pellets were resuspended in 1.0 ml phosphate buffer, pH 7.4, per 10^6 infected cells and sonicated 4×10 seconds; samples were stored at -70° C. Bacterial extracts were prepared by lysozyme-EDTAtreatment of cultures harvested 2 hours after IPTG induction.
Assays were performed by mixing equal volumes of [^35 S]-labeled substrate and test extract and incubating at 37° C. At different times, 25 μl samples were removed, mixed with 25 μl of SDS Sample Buffer, heated to 90° C., and analyzed by SDS-polyacrylamide gel electrophoresis and autoradiography as described (Anderson et al., J. Virol. 12: 241-252 (1973).
Recombinant proteinase polypeptides were assayed for proteinase activity by incubating whole-cell extracts of BL21 (DE3), pT7AD23K5/BL21(DE3), and pT7AD23k6/BL21(DE3), prepared as described above, with extracts of [^35 S]-methionine-labeled Ad2 virion precursor polypeptides. Incubation of the labeled extract at 37° C. for up to 20 hours, alone or with an extract prepared from uninfected HeLa cells, produced little change in the pattern of labeled polypeptides.

[2] = molecular target: T1, Ad2 proteinase (rEP protein) (Human adenovirus C serotype 2, UniProt P03252); type: biochemical, human adenovirus type 2; settings: for Rate (pmol substrate min^-1) / Stimulation (fold): rate in presence of effector divided by rate in its absence: 8.3 nM rEP protein, 98 nM pVIc peptide; for Rate (pmol substrate min^-1): 1 μM (Leu-Arg-Gly-Gly-NH)2-rhodamine, effector at concentration giving maximal stimulation; for Stimulation (fold): rate in presence of effector divided by rate in its absence: 1 μM substrate; for Effector concentration that gave maximal stimulation of proteinase activity: moles of molecules per liter, 8.3 nM rEP, 98 nM pVIc
T1 construct: Plasmid pT7AD23k6 contains the 204 codons of the Ad2 proteinase reading frame plus a translational termination codon; made in house; host or cells: E. coli BL21(DE3)
T1 sequence (P03252 whole entry): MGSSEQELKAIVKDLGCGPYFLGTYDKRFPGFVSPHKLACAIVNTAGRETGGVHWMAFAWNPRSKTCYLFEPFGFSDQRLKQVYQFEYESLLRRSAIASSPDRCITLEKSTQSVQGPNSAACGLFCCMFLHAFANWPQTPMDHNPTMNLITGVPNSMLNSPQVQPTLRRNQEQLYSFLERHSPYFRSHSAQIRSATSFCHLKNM
Description: The nature of the proteinase cofactor(s) was pursued with the aid of the second assay, which utilizes the substrate (Leu-Arg-Gly-Gly-NH)2 -rhodamine. The design of this substrate was based on two facts. (1) It was known that the proteinase present in disrupted Ad2 virions would cleave small peptides with sequence similar to that found at natural cleavage sites in adenovirus virion precursors (Webster et al., 1989). (2) Cleavage of either tetra-peptide sequence from the substituted rhodamine substrate produces a very large increase, up to a 3500-fold, in fluorescence. Under conditions where only a small fraction of the rhodamine substrate is cleaved, the increase in fluorescence is proportional to the amount of proteinase present and to the time of incubation. Thus, the fluorescence assay provides a quantitative method for assessing proteinase activity that is more sensitive convenient and rapid than the gel electrophoresis assay.
After determining the identity of the two cofactors, reconstitution of adenovirus proteinase activity in vitro with purified components was accomplished. […] In (a), Assays in 1 ml contained 1.2 nM rEP protein, 11.9 pM Ad2 DNA and the indicated concentrations of pVI-c peptide. The rate of substrate hydrolysis is the rate in the reaction minus the rate with the rEP protein and Ad2 DNA alone which was 0.068 pmol min^-1. In (b), Assays in 1 ml contained 1.2 nM rEP protein, 36 nM pVI-c peptide and the indicated concentrations of Ad2 DNA. The rate of substrate hydrolysis is the rate in the reaction minus the rate with the rEP protein and pVI-c alone which was 2.76 pmol min^-1. The concentration of (Leu-Arg-Gly-Gly-NH)2 -rhodamine was 5 μM, and its rate of hydrolysis to Leu-Arg-Gly-Gly-NH-rhodamine was determined by measuring the increase in fluorescence every 3 minutes for 15 minutes. The pVI-c peptide was assembled in a peptide synthesizer.
Assays were performed in 400 μl of Assay Buffer (50 mM Tris-HCl, pH 7.4, 25 mM NaCl, 10 mM octylglucoside, and 1 mM dithiothreitol). The concentration of the fluorogenic substrate, (Leu-Arg-Gly-Gly-NH)2 -rhodamine was 5 μM. When present, the number of disrupted virus particles was 10^10 and the amount of recombinant proteinase was 0.12 mAU280 nm. […] After 30 minutes at 37° C., a 360 μl aliquot of the reaction was added to 340 μl of Assay Buffer minus octylglucoside, and the increase in fluorescence was measured. The excitation wavelength was 492 nm and the emission wavelength was 523 nm, both with a bandwidth of 5 nm. The change in fluorescence, ΔF, is the magnitude of the fluorescence from the sample minus the magnitude of the fluorescence from an identical solution without enzyme.
DNase-treated disrupted virus was obtained by incubating 2×10^10 disrupted virions in 20 μl containing 0.1M NaAc, pH 5.0, 5 mM MgCl2, and 55 μg/ml DNase I for 4 minutes at 25° C. Then, EDTA to 23 mM and dithiothreitol to 2.3 mM were added, and the reactions were heated at 56° C. for 1 minute to inactivate the DNase.
For the assays shown in FIG. 8, the DNase reactions were diluted by the addition of 380 μl Assay Buffer containing the substrate, the proteinase and either 2×10^10 molecules of Ad2 DNA (+) or no DNA (-). After 30 minutes at 37° C., 360 μl of the reactions were added to 340 μl Assay Buffer minus octylglucoside and the increase in fluorescence was measured. The assays in (B) and (C) were identical to those in (A) except that in (B) H2ts1 virus was added after the DNase was inactivated (i-DNase) and in (C) no Dnase was present. In (D) recombinant proteinase plus 10^10 molecules of Ad2 DNA were preincubated for 10 minutes at 37° C. before adding substrate.
.dagger. All assays contained 8.3 nM rEP protein, 98 nM pVIc peptide, and
1 μM (Leu--Arg--Gly--Gly--NH)2rhodamine. The rate of substrate

Row | Compound | Activity/Conditions ([1]; Induced, log phase) | Proteinase activity (cleavage of pVII) ([1]; extracts of IPTG-induced) | Rate (pmol substrate min^-1) [2] [pmol substrate min^-1] | Stimulation (fold): rate in presence of effector divided by rate in its absence [2] [fold] | Effector concentration that gave maximal stimulation of proteinase activity [2] [nM] | other results
1 | 23K8: recombinant wild-type Ad2 proteinase from pT7AD23K8 (gene with AflII site) | Active | active | – | – | – | Cleavage of HEP1DBP (HEP1DBP; incubated together with disrupted H2ts1 virions): cleavage was obtained; Cleavage of HEP1DBP (HEP1DBP; incubated with HEP1DBP alone, no added cofactors): no cleavage
2 | 23K10: recombinant Ad2 proteinase from pT7AD23K10, same reading frame as pT7AD23k6 | Active | active | – | – | – | –
3 | 23K11: Ad2 proteinase variant, E5 QELKAIVK13 deleted, 194 amino acids | – | not active | – | – | – | Proteinase activity (cleavage of pVII) ([1]; either uninduced, stationary or induced): No processing activity was detected; also recorded: No proteinase activity; Activity/Conditions ([1]; no growth conditions printed): Inactive
4 | 23K13: Ad2 proteinase variant with GHHHHHHNM at carboxy-terminus | Active | as active as 23k6 | – | – | – | –
5 | N[C@@H](CC(=O)O)C(=O)O [Aspartic acid] | – | – | 2.1 | < 1.0 | 1380 | –
6 | N[C@@H](CCC(=O)O)C(=O)O [Glutamic acid] | – | – | 2.3 | < 1.0 | 780 | –
7 | CGYGPKKKRKVGG [peptide similar in character to pVI-c] | – | – | – | – | – | Substitution for the pVI-c peptide as cofactor [2]: did not substitute
8 | H2ts1: ts Ad2 proteinase with P to L mutation in codon 137, expressed from pT7AD23K18 | – | – | – | – | – | EP activity (HEP1DBP; DEAE flow-through fractions from pT7AD23K18/BL21(DE3) grown at 30° C., in the presence of H2ts1 virions, substrate not stated): No EP activity; Activity/Conditions ([1]; no growth conditions printed): Temperature-
9 | Heparin | – | – | 12.9 | 4.7 | 33 | Substitution for Ad2 DNA as cofactor of proteinase activity ([2]; in vitro): substituted for Ad2 DNA
